Data on 1 molecule can be found in patent US9724334B1, “Method for treating a neurodegenerative disease or depression comprising administering derivatives of 2-amino-2-(1-dodecyl-1H-1,2,3-triazol-4-yl)propane-1,3-diol” (Kyungpook National University Industry-Academic Cooperation …, priority 2016, dated 2017).

Each structure is given as a SMILES string.

This experiment concerns the target T1, ASM (acid sphingomyelinase) (Homo sapiens, UniProt P17405).
T1 construct: fibroblasts (PS1 fibroblasts) derived from Alzheimer's disease patients, followed by the measurement of the change of ASM activity; host or cells: human fibroblast cell lines (PS1, from Alzheimer's disease patients)
T1 sequence (P17405 47-631): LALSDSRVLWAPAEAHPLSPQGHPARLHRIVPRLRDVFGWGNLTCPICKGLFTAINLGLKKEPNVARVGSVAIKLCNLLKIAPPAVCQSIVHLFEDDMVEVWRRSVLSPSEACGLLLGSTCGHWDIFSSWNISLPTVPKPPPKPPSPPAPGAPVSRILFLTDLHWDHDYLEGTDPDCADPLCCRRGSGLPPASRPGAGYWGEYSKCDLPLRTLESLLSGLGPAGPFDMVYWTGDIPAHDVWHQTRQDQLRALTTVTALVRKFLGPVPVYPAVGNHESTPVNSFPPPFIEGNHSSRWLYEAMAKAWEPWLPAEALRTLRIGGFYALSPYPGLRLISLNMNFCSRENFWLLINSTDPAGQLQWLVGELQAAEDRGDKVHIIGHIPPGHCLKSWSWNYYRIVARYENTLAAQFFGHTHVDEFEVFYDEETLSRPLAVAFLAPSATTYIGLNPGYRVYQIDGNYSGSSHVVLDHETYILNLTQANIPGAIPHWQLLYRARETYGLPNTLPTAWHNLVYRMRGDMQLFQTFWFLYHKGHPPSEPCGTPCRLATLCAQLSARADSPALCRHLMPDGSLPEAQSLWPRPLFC
The experiment can be described thus: ASM activity in fibroblasts derived from Alzheimer's disease patients (PS1 fibroblasts). Conditions: PS1 fibroblasts with increased ASM activity; versus untreated PS1 fibroblasts. Set-up: dose or concentration left out as unconfirmed. The class given is cell-based. The procedure: Human fibroblast cell lines (normal and PS1) were obtained from Coriell Institute and cultured in DMEM containing 15% FBS under the condition of 5% CO2 at 37° C. Subsequently, the cell lines were treated with the ASM inhibitory compound of the Chemical Formula 1, amitriptyline (AMI) and FTY720, followed by measuring the change of ASM activity. The concentration levels of ASM were measured as follows. Specifically, a microliter mouse plasma, brain tissue and 3 μl of fibroblast samples were mixed with ASM activity buffer and stored at 37° C. 114 μl of ethanol was added to terminate the hydrolysis reaction, followed by centrifugation. 30 μl of the supernatant was transferred to a glass vial, of which 5 μl was applied to the UPLC system. The ASM concentration levels were quantified by comparison with Bodipy (aminoacetaldehyde) conjugated with sphingomyelin and ceramide. Extraction and quantification of the sphingomyelin and ceramide were performed by extracting lipids from known method samples and resuspending the dried lipid extract in 25 μl of 0.2% Igepal CA-630 (Sigma-Aldrich). Each lipid level was quantified using the UPLC system. In order to confirm the ASM inhibitory effect of the compound developed according to the present invention, the ASM inhibitory compound of the Chemical Formula 2, AMI and FTY720 were treated […] concentration, respectively, in the fibroblasts (PS1 fibroblasts) derived from Alzheimer's disease patients, followed by the measurement of the change of ASM activity.

In the case of `CCCCCCCCc1ccc(CCC(N)(CO)CO)cc1` [FTY720, reference compound], the “change of ASM activity” value is on record as “markedly reduced”.
